According to patent publication US4215143A (Mitsui Toatsu Chemicals, Incorporated, priority 1978, dated 1980):

How the values were obtained:
[1] = system: Gastric Juice Secretion; assay: Effect on gastric juice secretion in pylorus-ligated rats; assay type: in vivo, Male rats of the Donryu strain; settings: 250 mg/kg, p.o.; 4 hours; control 4.9 ± 0.4; * significant vs control at the 5% level
Description: (§1) Male rats of the Donryu strain, 11 weeks of age, were used in groups of ten. After 24 hours of fasting, the pylorus was ligated. Four hours later, the gastric juice was collected and its volume was measured. Then, its acidity was determined by titrating an aliquot of the gastric juice with 0.05 N sodium hydroxide. Further, the activity of pepsin was determined by Anson's method. A definite amount (250 mg/kg) of a compound to be tested was orally administered immediately after the ligation of the pylorus.

[2] = system: Gastric Juice Acidity; assay: Effect on gastric juice acidity in pylorus-ligated rats; assay type: in vivo, Male rats of the Donryu strain; settings: 250 mg/kg, p.o.; 4 hours; control 92.5 ± 3.7; * significant vs control at the 5% level
Description: as §1

[3] = system: pepsin; assay: Effect on pepsin activity in pylorus-ligated rats (Anson's method); assay type: in vivo, Male rats of the Donryu strain; settings: 250 mg/kg, p.o.; 4 hours; control 7.4 ± 0.5; ** significant vs control at the 1% level
Description: as §1

[4] = system: Acetic Acid Ulcer; assay: Acetic Acid Ulcer, healing promotion effect; assay type: in vivo, Male rats of the Wistar strain; settings: p.o., twice a day for 7 days
Description: (§2) The anti-ulcer effect of some compounds of this invention was evaluated with regard to various types of experimental gastric and duodenal ulcers. The method of evaluation for each type of ulcer is outlined below.
Male rats of the Wistar strain, 6 weeks of age, were used in groups of ten. Under ether anesthesia, each animal was laparotomized, a round frame (with an inside diameter of 5 mm) made of stainless steel was applied to the anterior wall of the stomach, and 100% acetic acid was poured into the frame. After 30 seconds, the acetic acid was removed and the abdomen was closed. Starting on the 7th day after the operation, a certain amount of a compound to be tested was orally administered twice a day to each animal of a group for a period of 7 days. Thereafter, the degree of healing of the ulcer was rated by visual insepction and regarded as an ulcer index (U.I.). The results are also expressed in terms of the percentage of healing based on the U.I. obtained in the control group receiving no compounds to be tested.

[5] = system: Shay's Ulcer; assay: Shay's Ulcer (pylorus ligation), anti-ulcer effect; assay type: in vivo, Male rats of the Wistar strain; settings: p.o., 12 hours, vs control group
Description: The anti-ulcer effect of some compounds of this invention was evaluated with regard to various types of experimental gastric and duodenal ulcers. The method of evaluation for each type of ulcer is outlined below. Male rats of the Wistar strain, 7 or 8 weeks of age, were used in groups of ten. After 48 hours of fasting, the pyloric part of the stomach was ligated under ether anesthesia. Immediately after the operation, a certain amount of a compound to be tested was orally administered to each animal of a group. After 12 hours, the degree of ulceration occurring in the anterior part of the stomach was rated and regarded as an ulcer index (U.I.). Control rats were treated in the same manner as described above, except that they received no compounds to be tested. The results given in Table 1 are expressed in terms of the percentage of inhibition based on the U.I. obtained in the control group.

[6] = system: Stress Ulcer; assay: Stress Ulcer (water immersion restraint), anti-ulcer effect; assay type: in vivo, Male rats of the Wistar strain; settings: 250 mg/kg, p.o.; stress for 16 hours; vs control group
Description: The anti-ulcer effect of some compounds of this invention was evaluated with regard to various types of experimental gastric and duodenal ulcers. The method of evaluation for each type of ulcer is outlined below. Male rats of the Wistar strain, 8 weeks of age, were used in groups of ten. Each animal was immobilized in a stressing cage as developed by Takagi et al., immersed in water at 23° C. to the level of the xiphoid process, and thereby subjected to stress for 16 hours. Thereafter, the stomach was excised. The length of the ulcer formed in the glandular part of the stomach was measured and regarded as an ulcer index (U.I.). A certain amount of a compound to be tested was orally administered just before subjecting the animal to stress. The results are also expressed in terms of the percentage of inhibition based on the U.I. obtained in the control group receiving no compounds to be tested.

[7] = system: Aspirin Ulcer; assay: Aspirin Ulcer, anti-ulcer effect; assay type: in vivo, Male rats of the Donryu strain; settings: p.o., aspirin 250 mg/kg oral, 6 hours
Description: as §2
Male rats of the Donryu strain, 10 or 11 weeks of age, were used in groups of ten. After 24 hours of fasting, a certain amount of a compound to be tested was orally administered to each animal of a group. Ten minutes later, aspirin was orally administered in a dose of 250 mg/kg. After 6 hours, the size of the ulcer formed in the glandular part of the stomach was rated by visual inspection and regarded as an ulcer index (U.I.). The results are also expressed in terms of the percentage of inhibition based on the U.I. obtained in the control group receiving no compounds to be tested.

Substance	Amount of Gastric Juice Secreted [1]	Acidity of Gastric Juice [2]	Activity of Pepsin [3]	percentage of healing (ulcer index, Acetic Acid Ulcer) ([4]; 100 mg/kg)	percentage of healing (ulcer index, Acetic Acid Ulcer) ([4]; 250 mg/kg)	percentage of inhibition (ulcer index, Shay's Ulcer) ([5]; 100 mg/kg)	percentage of inhibition (ulcer index, Shay's Ulcer) ([5]; 250 mg/kg)	percentage of inhibition (ulcer index, Stress Ulcer) [6]	percentage of inhibition (ulcer index, Aspirin Ulcer) ([7]; 100 mg/kg)	percentage of inhibition (ulcer index, Aspirin Ulcer) ([7]; 250 mg/kg)
inositol hexasulfate aluminum salt	3.6 ± 0.4 mL	57.8 ± 12.9 mEq/l	4.8 ± 0.4 mg/mL							
inositol hexasulfate sodium aluminum salt	3.6 ± 0.4 mL	61.1 ± 11.4 mEq/l	5.1 ± 0.5 mg/mL	23 percentage	28 percentage	87 percentage	90 percentage	30 percentage	42 percentage	49 percentage
